Legend:
IL-1β mRNA expression [1] = assay: Inhibition of LPS-induced IL-1β mRNA expression in HUVEC; type: cell-based, Human; conditions: 10 μM for 30 min, then LPS 24 hours
Procedure: (§1) Human Umbilical Cord Endothelial Cells (HUVEC, Lonza CC-2519) were maintained on 1% gelatin-coated culture flasks in RPMI1640 medium containing 20% fetal bovine serum, 2 mM Glutamine (Sigma-Aldrich), 1% Penicillin-Streptomycin solution (Sigma-Aldrich) and 50 μg/ml Bovine Pituitary Extract (Invitrogen). HUVEC were passaged by trypsinization when the cultures reach a confluency of 70%. For all experiments, HUVEC were seeded at 0.6·10^5 cells/cm^2 and allowed to adhere for 24 hours.
(§2) HUVEC and NRK52E cells were pre-incubated with SUL compounds (10 μM) for 30 min and subsequently exposed to LPS for 24 hours under standard culture conditions. Cells were lysed in triZOL reagens (Invitrogen) and total RNA isolated according to manufacturers' instruction. 1 μg total RNA per sample was reverse transcribed using the FirstAid Reverse Transcription Kit (ThermoFisher). Copy-DNA equivalents of 5 ng total RNA were amplified on a ViiA7 Real-time PCR system (ThermoFisher, Waltham, Mass.) using iTaq Universal SYBR Green Supermix (Bio-Rad, Hercules, Calif.) and primers specific for tumor necrosis factor alpha, interleukin 1 beta, interleukin-6 and beta actin as loading control. Amplification was performed for 40 cycles of 95° C. for 30 s, 60° C. for 1 min. Relative mRNA expression was calculated as 2^−(Cq^gene^−Cq^reference^) and normalized to unstimulated control cells (100% inhibition) and vehicle-treated and LPS exposed cells (0% inhibition). The following primers were used: […]

[2] = system: expression of IL-6, TNF-α, IL-1β and ICAM in the kidney; assay: CLP sepsis model, kidney RNA expression by qRT-PCR; type: in vivo; conditions: CLP mice; SUL-138 5 mg/kg s.c.; 24 hours
Procedure: To induce sepsis, the standard cecal ligation and puncture (CLP) model was used. Animals were anesthetized by subcutaneous injection of xylazine/ketamine (100/10 mg/kg), followed by administration of buprenorphine (0.1 mg/kg) as analgesic. After confirmation of anesthesia by lack of response to paw pinch and eye reflex, the abdomen was shaved, cleaned, and de-germed using a povidone-iodine solution before a 1-cm midline incision was made. The cecum was ligated with a 6-0 suture at half the distance between distal pole and the base of the cecum and punctured once with a 21-Gauge needle (‘through-and-through’ from mesenteric toward anti-mesenteric direction) which is an accepted model for ‘mid-grade’ sepsis. A small amount of stool (2-3 mm) was then extruded to ensure wound patency. The cecum was repositioned, thereby taking care not to spill fecal material on the wound edges, followed by closure of the abdomen by running sutures to the abdominal musculature and short interrupted sutures to the skin. Next, 1 ml of saline (warmed, 0.9% NaCl s.c.) was administered to compensate for the expected relative volume depletion due to the onset of sepsis.
Mice in the SUL-138 treated groups were injection with SUL-138 (dissolved in saline, 5 mg/kg, s.c.) at 2 hours before and 8 hours after surgery, while mice in the other groups were injected with an equal volume of saline at these time-points.
In order to assess the expression of proinflammatory cytokines and adhesion molecules in the kidney, including IL-6, TNF-α, IL-1β and ICAM, RNA was isolated from approximately 30 mg kidney tissue using Nucleospin RNA (Machery-Nagel, Duren, Germany), quantified using nanodrop spectrophotometer ND-1000 and converted into copy DNA (cDNA), using 0.5 μg RNA in each sample. For RNA isolation from cells, the same kit was used with slight adaptations: TRIzol and chloroform as lysis buffer, instead of the lysis buffer from the kit. Olignucleotide primers were designed using NCBI Primer Blast and Clone Manager (see appendix) and validated by assessing the efficiency, melting temperature and curve using qRT-PCR and size on gel electrophoresis of the naive and enzymatically digested products. qRT-PCR amplification was performed using the following thermal profile: 95° C. for 2 min, followed by 40 cycli of 95° C. for 15 sec, 58° C. for 30 sec and 72° C. 30 sec. All reactions were carried out in triplicate and a standard curve for each primer was used.

IL-1β mRNA expression [3] = assay: Endothelial inflammatory activation after endotoxin, IL-1β mRNA (Example 5); type: cell-based, Human; conditions: HUVEC; 10 μM for 30 min
Procedure: as §1
HUVEC cells were lysed in triZOL reagens (Invitrogen) and total RNA isolated according to manufacturers' instruction. 1 μg total RNA per sample was reverse transcribed using the FirstAid Reverse Transcription Kit (ThermoFisher). Copy-DNA equivalents of 5 ng total RNA were amplified on a ViiA7 Real-time PCR system (ThermoFisher, Waltham, Mass.) using iTaq Universal SYBR Green Supermix (Bio-Rad, Hercules, Calif.) and primers specific for tumor necrosis factor alpha (TNFα; sense 5′-[…]-3′, antisense 5′-[…]-3′), interleukin 1 beta (IL-1β; sense 5′-[…]-3′, antisense 5′-[…]-3′), interleukin-6 (IL-6; sense 5′-[…]-3′, antisense 5′-[…]-3′) and beta actin (ACTB; sense 5′-[…]-3′, antisense 5′-[…]-3′) as loading control. Amplification was performed for 40 cycles of 95° C. for 30 s, 60° C. for 1 min. Relative mRNA expression was calculated according to the δδCt-method.

NO production in HUVEC = assay: Endothelial NO production (nitrate in conditioned medium), basal and after LPS; type: cell-based, Human; conditions: 10 μM pre-treatment, LPS 100 ng/ml for 24 hours
Procedure: as §1
Cellular production of NO was approximated by measuring nitrate concentrations in culture media using the Measure-IT™ High-Sensitivity Nitrite Assay Kit (#M36051, ThermoFisher) according to manufacturer's instructions. […] Therefore, nitrate concentrations in conditioned media are a good approximate to assess cellular NO production. 50 μl conditioned medium derived from a single 96-wells plate well was used per assay and normalized against protein concentration. All experiments were performed in quadruplicate.
Endotoxins suppress endothelial NO production by limiting the activity of eNOS. HUVEC were pre-treated with vehicle (DMSO), BN-80933, SUL-138, or SUL-150 or (all 10 μM) prior to endotoxin (LPS 100 ng/ml) exposure for 24 hours. The nitrate levels in the conditioned medium from endothelial cells exposed to LPS averaged at 160 pmol/mg protein (˜33% reduction versus non LPS exposed HUVEC, p=0.002), which was lower than basal control levels. BN-80933 further suppressed the nitrate levels in the conditioned medium (FIG. 7A) to an average of 90 pmol/mg protein (p=0.008).

TNFα mRNA expression = assay: Inhibition of LPS-induced TNFα mRNA expression in HUVEC; type: cell-based, Human; conditions: 10 μM for 30 min, then LPS 24 hours
Procedure: as §1, §2

SMILES: Cc1c(C)c2c(c(C)c1O)CC[C@@](C)(C(=O)N1CCN(CCO)CC1)O2 [SUL-138, (S)-(6-hydroxy-2,5,7,8-tetramethylchroman-2-yl)(4-(2-hydroxyethyl)piperazin-1-yl)methanone]
- inhibition of LPS-induced mRNA expression of IL-1β (IL-1β mRNA expression [1]): 76.3 ± 7.9 %
- ICAM expression in the kidney (RNA) [2]: lower than in the untreated CLP animals but the difference was not statistically significant
- IL-1β expression in the kidney (RNA) [2]: lower than in the untreated CLP animals but the difference was not statistically significant
- IL-6 expression in the kidney (RNA) [2]: fully prevented the rise in IL-6 expression
- TNF-α expression in the kidney (RNA) [2]: lower than in the untreated CLP animals but the difference was not statistically significant
- LPS-induced mRNA expression of IL-1β (IL-1β mRNA expression [3]): precluded the LPS-induced increase in IL-1β and IL-6
- nitrate levels in the conditioned medium after LPS (NO production in HUVEC): mitigated the LPS-induced reduction in nitrate levels and their levels did not change from basal nitrate level
- inhibition of LPS-induced mRNA expression of TNFα (TNFα mRNA expression): 81.4 ± 4.5 %
